This assay has as its target Programmed cell death 1 ligand/protein 1 (Homo sapiens, UniProt Q15116+Q9NZQ7). The assay is described as follows: PD1-PDL1 HTRF Binding Activity Assay. As for the experimental part:
1) Pre-diluted compound solution, 4 μL of Tag1-PD-L1 and 4 μL of Tag2-PD1 were added to each well of a 384-well plate:2) After the mixture was incubated at room temperature for 15 min, 5 μL of anti-Tag1-Eu3+ antibody and 5 μL of anti-Tag2-XL665 antibody were then added;3) After incubated for 2 hrs at room temperature or overnight at 4° C., plates were read on Envision of Pelkin Elmer; and readings at 665 nm and 620 nm were recorded, and the ratio of the two readings was taken as a reading for each well;4) The reading of each well after compound treatment was compared with the reading of DMSO treated wells to obtain the percent inhibition of the compound;5) IC50 values of compounds and positive compounds of the examples of the present invention were determined by non-linear regression analysis of percent inhibition at different compound concentrations.

Programmed cell death 1 ligand/protein 1, sequence (Q9NZQ7 whole entry): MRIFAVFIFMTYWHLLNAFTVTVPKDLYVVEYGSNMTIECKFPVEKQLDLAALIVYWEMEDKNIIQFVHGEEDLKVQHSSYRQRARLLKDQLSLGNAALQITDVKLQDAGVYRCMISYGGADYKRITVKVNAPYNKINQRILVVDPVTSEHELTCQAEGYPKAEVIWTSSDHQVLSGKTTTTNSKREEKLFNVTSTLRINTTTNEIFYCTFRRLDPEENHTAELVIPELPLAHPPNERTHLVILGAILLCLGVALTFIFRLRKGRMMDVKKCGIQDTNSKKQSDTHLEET
Programmed cell death 1 ligand/protein 1, sequence (Q15116 whole entry): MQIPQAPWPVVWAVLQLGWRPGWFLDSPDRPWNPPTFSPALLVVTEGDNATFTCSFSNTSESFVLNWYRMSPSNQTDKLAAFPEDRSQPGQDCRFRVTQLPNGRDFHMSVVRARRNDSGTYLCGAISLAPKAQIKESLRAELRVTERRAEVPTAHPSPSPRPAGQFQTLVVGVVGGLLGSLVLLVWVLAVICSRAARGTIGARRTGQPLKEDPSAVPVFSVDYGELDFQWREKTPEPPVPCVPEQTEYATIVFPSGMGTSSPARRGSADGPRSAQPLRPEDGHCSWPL

On to `CC(C)N1CCc2cc(C(=O)Nc3cccc(-c4cccc(NC(=O)c5cc(C6CC6)c(CN6CCCC[C@H]6C(=O)O)cn5)c4Cl)c3Cl)ncc2C1` [US12552811, Example 32], for which the IC50 amounted to 0.661 nM.
